Experimental data: BindingDB's records for patent WO2025049746 (Eikon Therapeutics, 2025)

How the values were obtained:
[1] = biological target: T1, Bifunctional 3'-5' exonuclease/ATP-dependent helicase WRN [480-1251] (UniProt Q14191); test: Biochemical Activity Assays
T1 construct: 480-1251
Method: The pure fractions were pooled and desalted/buffer exchanged into storage buffer using a HiTrap desalting column. […] First, WRN alone was pre-incubated with DMSO or compound of interest for 15 minutes. To initiate the reaction, ATP, dsDNA substrate, and ssDNA competitor (ssDNA_comp: […]) were added and incubated at room temperature for 20 minutes at which point DNA unwinding activity was monitored by measuring Cy3 fluorescence. After obtaining the reading, the ATPase activity was measured using the ADP-Glo Kinase Assay following the manufacturers recommended protocol. […] Compounds were assayed in a 10-point dose response in duplicate at a 1% DMSO final assay concentration.

[2] = biological target: Bifunctional 3'-5' exonuclease/ATP-dependent helicase WRN (Homo sapiens, UniProt Q14191); test: ADP-Glo Kinase Assay
Bifunctional 3'-5' exonuclease/ATP-dependent helicase WRN, sequence (Q14191 whole entry): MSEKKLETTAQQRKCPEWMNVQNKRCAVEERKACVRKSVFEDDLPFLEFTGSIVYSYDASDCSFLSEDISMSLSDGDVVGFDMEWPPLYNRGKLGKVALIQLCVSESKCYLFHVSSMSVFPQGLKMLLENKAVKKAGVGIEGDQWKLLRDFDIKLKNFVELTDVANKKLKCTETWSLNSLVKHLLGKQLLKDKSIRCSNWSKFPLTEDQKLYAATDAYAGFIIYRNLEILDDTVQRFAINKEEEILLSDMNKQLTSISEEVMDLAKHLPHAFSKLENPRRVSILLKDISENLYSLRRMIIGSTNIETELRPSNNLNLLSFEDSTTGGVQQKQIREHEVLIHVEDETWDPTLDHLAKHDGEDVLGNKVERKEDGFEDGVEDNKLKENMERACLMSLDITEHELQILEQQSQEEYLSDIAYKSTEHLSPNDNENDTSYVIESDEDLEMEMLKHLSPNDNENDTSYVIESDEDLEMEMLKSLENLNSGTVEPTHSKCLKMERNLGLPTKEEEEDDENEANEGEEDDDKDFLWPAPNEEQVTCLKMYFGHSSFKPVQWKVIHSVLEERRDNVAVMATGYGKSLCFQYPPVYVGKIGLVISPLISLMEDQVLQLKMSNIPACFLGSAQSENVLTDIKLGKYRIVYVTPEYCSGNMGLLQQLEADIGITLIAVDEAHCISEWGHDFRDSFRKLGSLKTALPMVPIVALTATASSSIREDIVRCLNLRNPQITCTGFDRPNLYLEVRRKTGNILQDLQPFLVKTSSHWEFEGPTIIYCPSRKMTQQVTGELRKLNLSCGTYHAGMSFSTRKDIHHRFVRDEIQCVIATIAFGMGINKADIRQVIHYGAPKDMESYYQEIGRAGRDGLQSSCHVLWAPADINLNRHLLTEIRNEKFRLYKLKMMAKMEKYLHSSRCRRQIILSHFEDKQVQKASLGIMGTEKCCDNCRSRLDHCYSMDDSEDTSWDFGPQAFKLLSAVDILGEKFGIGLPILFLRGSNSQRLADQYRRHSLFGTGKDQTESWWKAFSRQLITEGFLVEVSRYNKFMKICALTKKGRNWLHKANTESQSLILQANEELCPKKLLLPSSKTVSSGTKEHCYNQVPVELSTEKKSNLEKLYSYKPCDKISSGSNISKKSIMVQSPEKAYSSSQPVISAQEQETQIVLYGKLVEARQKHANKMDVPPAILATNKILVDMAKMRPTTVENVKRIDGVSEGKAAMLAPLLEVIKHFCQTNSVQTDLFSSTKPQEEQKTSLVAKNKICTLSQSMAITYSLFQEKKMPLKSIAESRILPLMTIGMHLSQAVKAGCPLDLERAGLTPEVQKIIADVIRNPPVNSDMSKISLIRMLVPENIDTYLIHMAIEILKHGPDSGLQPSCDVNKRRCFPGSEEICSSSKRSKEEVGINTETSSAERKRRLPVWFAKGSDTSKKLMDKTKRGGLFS
Method: ATPase activity was measured using the ADP-Glo Kinase Assay following the manufacturers recommended protocol.

T1 sequence (Q14191 480-1251): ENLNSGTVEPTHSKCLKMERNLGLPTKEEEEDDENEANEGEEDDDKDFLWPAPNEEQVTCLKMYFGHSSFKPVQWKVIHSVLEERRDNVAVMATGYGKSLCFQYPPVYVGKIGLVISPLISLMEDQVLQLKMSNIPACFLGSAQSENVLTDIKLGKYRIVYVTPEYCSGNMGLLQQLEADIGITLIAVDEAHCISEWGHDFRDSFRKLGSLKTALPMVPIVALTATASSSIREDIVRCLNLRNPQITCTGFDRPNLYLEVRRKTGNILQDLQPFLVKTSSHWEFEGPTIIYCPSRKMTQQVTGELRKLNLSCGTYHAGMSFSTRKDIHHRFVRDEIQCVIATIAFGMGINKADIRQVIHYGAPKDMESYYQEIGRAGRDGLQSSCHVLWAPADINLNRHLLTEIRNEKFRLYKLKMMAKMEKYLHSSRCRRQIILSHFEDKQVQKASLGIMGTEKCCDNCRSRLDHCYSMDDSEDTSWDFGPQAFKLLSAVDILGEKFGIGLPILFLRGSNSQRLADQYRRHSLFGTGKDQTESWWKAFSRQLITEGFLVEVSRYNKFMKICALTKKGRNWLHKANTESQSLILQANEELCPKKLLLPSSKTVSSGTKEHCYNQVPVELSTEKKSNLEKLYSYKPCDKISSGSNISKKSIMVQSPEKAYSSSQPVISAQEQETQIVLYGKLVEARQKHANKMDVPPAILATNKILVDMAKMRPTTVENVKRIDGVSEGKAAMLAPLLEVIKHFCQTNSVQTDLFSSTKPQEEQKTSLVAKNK

Row | SMILES | IC50 [1] [µM] | IC50 [2] [µM]
1 | CCc1c(N2CC[C@@H](C)N(C(=O)c3ncnc(C)c3O)CC2)c(=O)n2nc(C3=CCOCC3)nc2n1CC(=O)Nc1ccc(C(F)(F)F)cc1Cl [WO2025049746, Example 341] | 0.067 | 0.08
2 | CCc1c(N2CCN(C(=O)c3nocc3O)CC2)c(=O)n2nc(-c3ccc4c(c3)COC4)nc2n1CC(=O)Nc1ccc(C(F)(F)F)cc1Cl [WO2025049746, Example 439] | 0.053 | 0.05
3 | CCc1c(N2CCN(C(=O)C(F)(F)C3(O)CCC3)CC2)c(=O)n2nc(C3=CCOCC3)nc2n1CC(=O)Nc1ccc(C(F)(F)F)cc1Cl [WO2025049746, Example 57] | 0.486 | 0.827
4 | CCc1c(N2CCN(C(=O)c3ncnc(C)c3O)CC2)c(=O)n2nc(-c3cccc4oc(C)nc34)nc2n1CC(=O)Nc1ccc(C(F)(F)F)cc1Cl [WO2025049746, Example 155] | 0.035 | 0.089
5 | Cc1ncnc(C(=O)N2CCN(c3c4n(c5nc(-c6ccc7c(c6)COC7(C)C)nn5c3=O)[C@H](C(=O)Nc3ccc(C(F)(F)F)cc3Cl)C[C@H]4C)[C@H]3CC[C@@H]32)c1O [WO2025049746, Example 467] | 9.57 | > 29.7
6 | CCc1c(N2CCN(C(=O)c3ncnc(C)c3O)CC2)c(=O)n2nc(-c3cccc4c3COC(C)(C)C4)nc2n1CC(=O)Nc1ccc(C(F)(F)F)cc1Cl [WO2025049746, Example 223] | 1.55 | 3.83
7 | CCc1c(N2CCN(C(=O)c3ncnc(C)c3O)CC2)c(=O)n2nc(-c3ccc4nn(C)nc4c3)nc2n1CC(=O)Nc1ccc(C(F)(F)F)cc1Cl [WO2025049746, Example 301] | 0.035 | 0.033
8 | CCc1c(N2CCN(C(=O)c3ncnc(C)c3O)CC2)c(=O)n2nc(-c3cccc4c3OCCO4)nc2n1CC(=O)Nc1ccc(SC(F)(F)F)cc1Cl [WO2025049746, Example 399] | 0.115 | 0.142
9 | Cc1ncnc(C(=O)N2CCN(c3c4n(c5nc(-c6ccc7c(c6)COC7(C)C)nn5c3=O)[C@@H](C(=O)Nc3ccc(C(F)(F)F)cc3Cl)C[C@H]4C)CC2)c1O [WO2025049746, Example 470] | 0.0346 | 0.0324
10 | CCc1c(N2CCN(C(=O)c3ncnc(C)c3O)CC2)c(=O)n2nc(-c3ccn4c(C)nnc4c3)nc2n1CC(=O)Nc1ccc(C(F)(F)F)cc1Cl [WO2025049746, Example 246] | 0.042 | 0.037
11 | CCc1c(N2CCN(C(=O)c3ccccc3NS(=O)(=O)C3CC3)CC2)c(=O)n2nc(-c3ccc4c(c3)OCO4)nc2n1CC(=O)Nc1ccc(C(F)(F)F)cc1Cl [WO2025049746, Example 87] | 0.138 | 0.159
12 | CCc1c(N2CCN(C(=O)c3ncnc(C)c3O)CC2)c(=O)n2nc(-c3cccc4c3OCCC4)nc2n1CC(=O)Nc1ccc(C(F)(F)F)cc1Cl [WO2025049746, Example 160] | 0.034 | 0.051
13 | CCc1c(N2CCN(C(=O)c3ncnc(C)c3O)CC2)c(=O)n2nc(-c3ccc4c(c3F)CCO4)nc2n1CC(=O)Nc1ccc(C(F)(F)F)cc1Cl [WO2025049746, Example 180] | 0.045 | 0.053
14 | CCc1c(N2CCN(C(=O)c3ncnc(C)c3O)CC2)c(=O)n2nc(-c3ccc4c(c3)C(C)(C)OC4(C)C)nc2n1CC(=O)Nc1ccc(C(F)(F)F)cc1Cl [WO2025049746, Example 172] | 0.087 | 0.124
15 | CCc1c(N2CCN(C(=O)c3cn(C)nc3O)CC2)c(=O)n2nc(N(C)C)nc2n1CC(=O)Nc1ccc(C(F)(F)F)c2c1CC2 [WO2025049746, Example 107] | 0.129 | 0.16
16 | CCc1c(N2CCN(C(=O)c3ccccc3NS(=O)(=O)C3CC3)CC2)c(=O)n2nc(-c3cccc4c3OCCO4)nc2n1CC(=O)Nc1ccc(C(F)(F)F)cc1Cl [WO2025049746, Example 379] | 0.135 | 0.202
17 | CCc1c(N2CCN(c3ccncn3)CC2)c(=O)n2nc(C3=CCOCC3)nc2n1CC(=O)Nc1ccc(C(F)(F)F)cc1Cl [WO2025049746, Example 66] | 0.0459 | 0.0639
18 | CCc1c(N2CCN(C(=O)c3ncnc(C)c3O)CC2)c(=O)n2nc(C3CCC3)nc2n1CC(=O)Nc1ccc(C(F)(F)F)cc1C [WO2025049746, Example 79] | 0.456 | 0.539
19 | CCc1c(N2CCN(C(=O)c3ncnc(C)c3O)CC2)c(=O)n2nc(C3=CCOCC3)nc2n1CC(=O)Nc1c(Cl)cc(C(F)(F)F)c2scnc12 [WO2025049746, Example 373] | 0.051 | 0.064
20 | CCc1c(N2CCN(C(=O)c3ncnc(C)c3O)CC2)c(=O)n2nc(-c3ccc4c(c3)CC(=O)N4)nc2n1CC(=O)Nc1ccc(C(F)(F)F)cc1Cl [WO2025049746, Example 325] | 0.034 | 0.025
21 | CCc1c(N2CCN(C(=O)c3ccccc3NS(=O)(=O)C3CC3)CC2)c(=O)n2nc(-c3ccc4c(c3)OCO4)nc2n1CC(=O)Nc1ccc(C(F)(F)F)c2c1CC2 [WO2025049746, Example 111] | 0.251 | 0.308
22 | CCc1c(N2CCN(C(=O)c3ncnc(C)c3O)CC2)c(=O)n2nc(-c3ccc4c(cnn4CC(F)F)c3)nc2n1CC(=O)Nc1ccc(C(F)(F)F)cc1Cl [WO2025049746, Example 293] | 0.034 | 0.033
23 | CCc1c(N2CCN(C(=O)c3cc4nnn(C)c4cc3OC)CC2)c(=O)n2nc(-c3ccc4c(c3)COC4)nc2n1CC(=O)Nc1ccc(C(F)(F)F)cc1Cl [WO2025049746, Example 429] | 0.094 | 0.118

Now those with a lower IC50 [1], led by results:

Row | IC50 [1] [µM] | IC50 [2] [µM] | SMILES
24 | 0.033 | 0.031 | CCc1c(N2CCN(C(=O)c3ncnc(C)c3O)CC2)c(=O)n2nc(-c3ccc4c(c3)CN(C)C4(C)C)nc2n1CC(=O)Nc1ccc(C(F)(F)F)cc1Cl [WO2025049746, Example 261]
25 | 0.033 | 0.03 | CCc1c(N2CCN(C(=O)c3ncnc(C)c3O)CC2)c(=O)n2nc(-c3ccc4c(c3C)CCO4)nc2n1CC(=O)Nc1ccc(C(F)(F)F)cc1Cl [WO2025049746, Example 238]
26 | 0.032 | 0.025 | CCc1c(N2CCN(C(=O)c3ncnc(C)c3O)CC2)c(=O)n2nc(-c3ccc4c(c3)CCC(=O)N4C)nc2n1CC(=O)Nc1ccc(C(F)(F)F)cc1Cl [WO2025049746, Example 324]
27 | 0.032 | 0.027 | CCc1c(N2CCN(C(=O)c3ncnc(C)c3O)CC2)c(=O)n2nc(-c3ccc4oc(=O)n(C)c4c3)nc2n1CC(=O)Nc1ccc(C(F)(F)F)cc1Cl [WO2025049746, Example 225]
28 | 0.032 | 0.041 | CCc1c(N2CCN(C(=O)c3ncnc(C)c3O)CC2)c(=O)n2nc(-c3ccc4c(c3)CCO4)nc2n1CC(=O)Nc1ccc(SC(F)(F)F)cc1Cl [WO2025049746, Example 410]
29 | 0.032 | 0.04 | CCc1c(N2CCN(C(=O)c3ncnc(C)c3O)CC2)c(=O)n2nc(-c3cc(F)c4c(c3)COC4)nc2n1CC(=O)Nc1ccc(C(F)(F)F)cc1Cl [WO2025049746, Example 202]
30 | 0.031 | 0.038 | CCc1c(N2CCN(C(=O)c3ncnc(C)c3O)CC2)c(=O)n2nc(-c3nc4c(s3)CCC4)nc2n1CC(=O)Nc1ccc(C(F)(F)F)cc1Cl [WO2025049746, Example 210]
31 | 0.031 | 0.029 | CCc1c(N2CCN(C(=O)c3ncnc(C)c3O)CC2)c(=O)n2nc(-c3ccc4nn(C)c(F)c4c3)nc2n1CC(=O)Nc1ccc(C(F)(F)F)cc1Cl [WO2025049746, Example 290]
32 | 0.03 | 0.031 | CCc1c(N2CCN(C(=O)c3ncnc(C)c3O)CC2)c(=O)n2nc(-c3ccc4cn(C)nc4c3)nc2n1CC(=O)Nc1ccc(C(F)(F)F)cc1Cl [WO2025049746, Example 177]
33 | 0.03 | 0.027 | CCc1c(N2CCN(C(=O)c3ncnc(C)c3O)CC2)c(=O)n2nc(-c3ccc4c(c3)CCO[C@H]4C)nc2n1CC(=O)Nc1ccc(C(F)(F)F)cc1Cl [WO2025049746, Example 229]
34 | 0.0279 | 0.0349 | CCc1c(N2CCN(C(=O)c3ncnc(C)c3O)CC2)c(=O)n2nc(-c3ccc4c(c3)OCC4)nc2n1CC(=O)Nc1ccc(C(F)(F)F)cc1Cl [WO2025049746, Example 12]
35 | 0.0275 | 0.0255 | Cc1ncnc(C(=O)N2CCN(c3c4n(c5nc(-c6ccc7c(c6)COC7(C)C)nn5c3=O)[C@H](C(=O)Nc3ccc(C(F)(F)F)cc3Cl)C[C@H]4C)CC2)c1O [WO2025049746, Example 469]
36 | 0.027 | 0.026 | CCc1c(N2CCN(C(=O)c3ncnc(C)c3O)CC2)c(=O)n2nc(-c3ccn4nc(C)cc4c3)nc2n1CC(=O)Nc1ccc(C(F)(F)F)cc1Cl [WO2025049746, Example 247]
37 | 0.0269 | 0.0433 | CCc1c(N2CCN(C(=O)c3nccc4nc[nH]c34)CC2)c(=O)n2nc(N(C)C)nc2n1CC(=O)Nc1ccc(C(F)(F)F)cc1Cl [WO2025049746, Example 80]
38 | 0.025 | 0.031 | CCc1c(N2CCN(C(=O)c3ncnc(C)c3O)CC2)c(=O)n2nc(-c3ccc4c(c3)COC4)nc2n1CC(=O)Nc1ccc(SC(F)(F)F)cc1Cl [WO2025049746, Example 409]
39 | 0.0234 | 0.0266 | CCc1c(N2CCN(C(=O)c3ccccc3NS(=O)(=O)C3CC3)CC2)c(=O)n2nc(N3C[C@H]4COC[C@H]4C3)nc2n1CC(=O)Nc1ccc(C(F)(F)F)cc1Cl [WO2025049746, Example 94]
40 | 0.022 | 0.023 | CCc1c(N2CCN(C(=O)c3ncnc(C)c3O)CC2)c(=O)n2nc(-c3cc4cn(C)nc4cc3F)nc2n1CC(=O)Nc1ccc(C(F)(F)F)cc1Cl [WO2025049746, Example 256]
41 | 0.0198 | 0.027 | CCc1c(N2CCN(C(=O)c3nccc4nn[nH]c34)CC2)c(=O)n2nc(C3=CCOCC3)nc2n1CC(=O)Nc1ccc(C(F)(F)F)cc1Cl [WO2025049746, Example 48]
